Reference: the CheMixHub drug solubility set

Experiment: xn = mol fraction of the nth substance listed, in the solute-free solvent

O=C1C=CC(=O)N1c1ccccc1Br + CO + O
solubility (g/100 g solution)
Settings	278.15 K	283.15 K	288.15 K	293.15 K	298.15 K	303.15 K	308.15 K	313.15 K	318.15 K	323.15 K
x2 = 0.05881	0.58	0.746	0.94	1.19	1.47	1.83	2.25	2.74	3.31	4.02
x2 = 0.1233	1.14	1.45	1.86	2.38	2.94	3.7	4.49	5.5	6.69	7.95
x2 = 0.1942	2.04	2.61	3.29	4.1	5.06	6.13	7.47	9.02	10.8	12.7
x2 = 0.2727	3.47	4.29	5.27	6.48	7.79	9.34	11.1	13	15.3	17.7
x2 = 0.3599	4.79	5.85	7.12	8.56	10.2	12	14.3	16.5	19	21.8
x2 = 0.4576	6.01	7.29	8.71	10.5	12.4	14.5	16.9	19.4	22.2	25.4
x2 = 0.5675	7	8.5	10.2	12.2	14.3	16.8	19.5	22.2	25.4	28.6
x2 = 0.6923	7.84	9.53	11.5	13.5	16.1	18.7	21.7	24.7	28.1	31.6
x2 = 0.835	8.75	10.5	12.7	14.9	17.7	20.6	23.8	27.1	30.8	34.6

c1ccc2c(c1)CCc1ccccc1N2 + OCCO + O
solubility (g/100 g solution)
Settings	283.15 K	288.15 K	293.15 K	298.15 K	303.15 K	308.15 K	313.15 K	318.15 K	323.15 K	328.15 K
x2 = 0.03125	0.0117	0.0166	0.0228	0.032	0.0373	0.0524	0.0651	0.088	0.117	0.153
x2 = 0.06775	0.0425	0.0584	0.0728	0.0999	0.124	0.165	0.207	0.265	0.333	0.406
x2 = 0.1107	0.0709	0.0954	0.123	0.162	0.202	0.258	0.32	0.397	0.49	0.598
x2 = 0.1615	0.0799	0.106	0.135	0.174	0.214	0.272	0.331	0.404	0.491	0.593
x2 = 0.2258	0.0897	0.118	0.144	0.179	0.221	0.265	0.32	0.381	0.455	0.558
x2 = 0.3035	0.0971	0.123	0.148	0.178	0.215	0.256	0.304	0.359	0.421	0.515
x2 = 0.4027	0.107	0.131	0.154	0.184	0.223	0.261	0.313	0.359	0.402	0.47
x2 = 0.5389	0.114	0.14	0.166	0.197	0.232	0.272	0.308	0.353	0.401	0.458
x2 = 0.7239	0.117	0.139	0.167	0.197	0.231	0.263	0.296	0.329	0.366	0.411

O=c1cc(CBr)c2ccccc2[nH]1 + CCCO + O
solubility (g/100 g solution)
Settings	278.15 K	283.15 K	288.15 K	293.15 K	298.15 K	303.15 K	308.15 K	313.15 K	318.15 K
x2 = 0.03225	0.0181	0.0232	0.0292	0.0365	0.0451	0.0563	0.0686	0.0826	0.0993
x2 = 0.06974	0.0316	0.038	0.0464	0.0561	0.0674	0.0807	0.0957	0.112	0.131
x2 = 0.1139	0.0465	0.0552	0.0643	0.0756	0.0895	0.104	0.119	0.138	0.157
x2 = 0.1666	0.0629	0.0722	0.084	0.096	0.11	0.125	0.142	0.159	0.18
x2 = 0.2307	0.0788	0.0907	0.102	0.115	0.131	0.146	0.164	0.181	0.202
x2 = 0.3103	0.0908	0.103	0.115	0.13	0.144	0.161	0.18	0.198	0.218
x2 = 0.4117	0.0987	0.11	0.124	0.14	0.155	0.172	0.189	0.207	0.229
x2 = 0.5454	0.103	0.114	0.128	0.141	0.156	0.173	0.189	0.209	0.228
x2 = 0.7297	0.102	0.112	0.124	0.138	0.151	0.166	0.183	0.2	0.217
